Broadly, the pIC50 is −log10 of the IC50, conventionally taken in molar units.

pIC50: −log10 of the molar value.

One experiment addresses human P2X7 receptor (Homo sapiens, UniProt Q99572, R270H/Y155H). Briefly: Evaluation of human P2X7 receptor inhibitory activity (Yo-Pro uptake, BzATP stimulation, FLIPR TETRA). It counts as cell-based. As to conditions: 1321N1 cells stably expressing human P2X7 receptor; BzATP stimulation, Yo-Pro uptake; read-out: IC50 (antagonistic activity for the human P2X7 receptor). The protocol: Stably expressing cell line (1321N1 cell transfected with the human P2X7 receptor gene (GenBank accession number NM_002562.5 including T606C and G952A SNP)) was used. The cells were seeded in a 384-well microtiter plate at a concentration of 8000 cells/well and cultured in the medium (10% fetal bovine serum, 25 mM HEPES, 1% penicillin and streptomycin in DMEM) for one day at 37° C. under 5% carbon dioxide atmosphere. After replacing with 20 μL of the HBSS buffer (20 mM HEPES, 55.6 mM D-glucose, 1×HBSS(−), pH7.4-7.5), 15 μL of 17.3 μM Yo-Pro solution in the HBSS buffer was added. The plate was placed in high-throughput cellular screening system FLIPR TETRA (Molecullar Devices, LLC.) and 15 μL of 130 μM BzATP solution in the HBSS buffer was added. Measurement of fluorescence intensity by FLIPR TETRA was started. After eight minutes, 15 μL of DMSO solutions containing different concentrations of the compound of the present invention as prepared by dilution with the HBSS buffer were dispensed to each well through the built-in automatic dispenser, and the measurement of fluorescence intensity was continued for 20 minutes. […] Changing values of fluorescence intensity by the compound of the present invention were calculated by difference between maximum and minimum fluorescence intensity for 20 minutes. Inhibition ratios (%) were calculated from the following equation:
[formula] IC50 was calculated using logistic approximation.
Regarding `COc1cn(Cc2ccc(C(F)(F)F)cc2)c(Nc2cccc(Cl)c2C)nc1=O` [Compound I-0297], the pIC50 is 6.60.
Regarding `COc1cn(Cc2ccc(F)c(Cl)c2)c(N[C@@H]2CCc3ccccc32)nc1=O` [Compound I-0335], the pIC50 was 6.77.
On to `COc1cccc(Cn2cc(OC)c(=O)nc2Nc2cccc(Cl)c2C)c1` [Compound I-0052], for which the pIC50 was 6.89.
For the compound `COc1cnc(Nc2cccc(Cl)c2C)n(Cc2ccccc2)c1=O` [Compound I-0967], the pIC50 was 6.35.
Same read-out and setting: the figure for `Cc1ccc(C)c(Nc2nc(=NO)c(F)cn2Cc2cc(F)c(F)c(F)c2)c1` [Compound I-1290] is 7.68; for `COc1cn(Cc2cc(F)cc(F)c2)c(Nc2cc(C)c(OC(F)(F)F)cc2C)nc1=O` [Compound I-0924] it is 7.77.
Turning to `COc1cn(Cc2ccc(F)c(Cl)c2)c(Nc2cc(S(C)(=O)=O)cc(C)c2C)nc1=O` [Compound I-0755], the pIC50 was 7.92.
Turning to `COc1cn(Cc2cc(F)cc(F)c2)c(Nc2ccc3ncsc3c2C)nc1=O` [Compound I-0857], the pIC50 is 7.59.
Consider `Cc1c(Cl)cccc1Nc1nc(=O)c(C(=O)NC2CCOCC2)cn1Cc1ccccc1` [Compound I-0019], for which the pIC50 was 7.31.

Still in this experiment, the particulars now being: 1321N1 cells stably expressing human P2X7 receptor; BzATP stimulation, Yo-Pro uptake; read-out: IC50 (antagonistic activity for the human P2X7 receptor), class symbol.
Turning to `Cc1c(Cl)cccc1Nc1nc(=O)c(C)cn1Cc1ccccc1` [Compound I-0012], the pIC50 is 7.00 to 8.00.
The same measure, in the same setting: the figure for `COc1ccc(C)c(Nc2nc(=O)c(OC)cn2Cc2cc(F)cc(Cl)c2)c1` [Compound I-0409] is 7.00 to 8.00.
The same measure, in the same setting: the figure for `COc1cc(F)cc(Cn2cc(OC)c(=O)nc2Nc2cccc(Cl)c2C)c1` [Compound I-0427] is 6.30 to 7.00.
The same measure, in the same setting: the figure for `COc1cn(Cc2cccc(Cl)c2)c(Nc2cc(C)ccc2C)nc1=O` [Compound I-0333] is 7.00 to 8.00; for `COc1cc(C)c(Nc2nc(=O)c(Cl)cn2Cc2ccc(F)c(Cl)c2)cc1OC` [Compound I-0345] it is greater than 8.00; for `Cc1c(Cl)cccc1Nc1nc(=O)c(F)cn1Cc1ccccc1` [Compound I-0010] it is greater than 8.00.
With `Cc1cc(C)c(Nc2nc(=O)c(Cl)cn2Cc2ccccc2)cc1C` [Compound I-0307], the pIC50 is greater than 8.00.
Same read-out and setting: the figure for `COc1cn(Cc2ccccc2)c(NCc2ccccc2C(F)(F)F)nc1=O` [Compound I-0065] is 6.00 to 6.30.
Same read-out and setting: for `COc1cn(Cc2ccccc2)c(Nc2cc(C)cc3[nH]ccc23)nc1=O` [Compound I-0390] the value was 7.00 to 8.00; for `COc1cn(Cc2ccccc2)c(NCc2ccccc2C)nc1=O` [Compound I-0102], 6.30 to 7.00.
For the compound `COc1cn(Cc2cccc(F)c2)c(Nc2cc3c(cc2C)OCCO3)nc1=O` [Compound I-0288], the pIC50 is 7.00 to 8.00.
In the case of `COc1cn(Cc2ccc(F)c(F)c2)c(Nc2cc(Cl)c(Cl)cc2C)nc1=O` [Compound I-0518], the negative logarithm of the IC50 (pIC50) was 7.00 to 8.00.
On the same count and under the same terms, the figure for `COc1cccc(Nc2nc(=O)c(OC)cn2Cc2ccccc2)c1C` [Compound I-0007] is 7.00 to 8.00.
For the compound `COc1ccc(Nc2nc(=O)c(OC)cn2Cc2cccc(Cl)c2)c(C)c1` [Compound I-0234], the pIC50 was 7.00 to 8.00.
Regarding `COc1cn(Cc2ccccc2)c(Nc2cc(-c3ncco3)ccc2C)nc1=O` [Compound I-0558], the negative-log IC50 (pIC50) is 7.00 to 8.00.
Same read-out and setting: the figure for `COc1cn(Cc2ccc(F)c(Cl)c2)c(Nc2ccc(N3CCOCC3)cc2C)nc1=O` [Compound I-0548] is 7.00 to 8.00; for `COc1cn(Cc2ccccc2)c(Nc2ccc(C)cc2C)nc1=O` [Compound I-0106] it is 7.00 to 8.00.
As for `COc1c(C)ccc(Nc2nc(=O)c(OC)cn2Cc2ccc(F)c(Cl)c2)c1C` [Compound I-0419], the pIC50 is greater than 8.00.
`Cc1c(Cl)cccc1Nc1nc(=O)c(NC(=O)OC(C)(C)C)cn1Cc1ccccc1` [Compound I-0021]: the negative logarithm of the IC50 (pIC50) is 6.30 to 7.00.
On to `Cc1cccc(Nc2nc(=O)c(F)cn2Cc2ccccc2)c1C` [Compound I-0128], for which the pIC50 was 7.00 to 8.00.
In the case of `Cc1cc(C)c(Nc2nc(=O)c(C(=O)NCc3ccccc3)cn2Cc2ccccc2)cc1C` [Compound I-0284], the pIC50 was 6.00 to 6.30.
Same read-out and setting: for `COc1cn(Cc2ccc(F)c(Cl)c2)c(Nc2cc(F)c(F)cc2C)nc1=O` [Compound I-0360] the value was 7.00 to 8.00; for `CCc1cc2c(cc1Nc1nc(=O)c(OC)cn1Cc1ccccc1Cl)CCC2` [Compound I-0194], 7.00 to 8.00.
On the same count and under the same terms, the figure for `CCc1cc(OC)ccc1Nc1nc(=O)c(OC)cn1Cc1cc(F)cc(F)c1` [Compound I-0440] is greater than 8.00; for `COc1cc(Nc2nc(=O)c(OC)cn2Cc2cc(F)cc(Cl)c2)c(C)cc1Cl` [Compound I-0537] it is greater than 8.00; for `COc1ccc(C)c(Nc2nc(=O)c(OC)cn2Cc2cc(F)cc(F)c2)c1` [Compound I-0408] it is 7.00 to 8.00.
Same read-out and setting: the figure for `Cc1cc2c(cc1Nc1nc(=O)c(F)cn1Cc1ccc(F)c(Cl)c1)OCCO2` [Compound I-0369] is greater than 8.00.

The experiment is the same for the next values; noted with them: antagonistic activity for the human P2X7 receptor; read-out: IC50.
On to `COc1cc(C)c(Nc2nc(=O)c(OC)cn2Cc2cccc(Cl)c2)cc1Cl` [Compound I-0671], for which the pIC50 is greater than 8.00.
With `COc1cc(C)c(Nc2nc(=O)c(OC)cn2Cc2ccc(F)c(F)c2)cc1Cl` [Compound I-0616], the pIC50 was greater than 8.00.
On the same count and under the same terms, the figure for `CCOc1cc(Nc2nc(=O)c(OC)cn2Cc2cc(F)c(F)c(F)c2)c(C)cc1F` [Compound I-0921] is greater than 8.00; for `Cc1c(Nc2nc(=O)c(F)cn2Cc2cc(F)cc(F)c2)ccc2[nH]ccc12` [Compound I-1119] it is greater than 8.00.
Same read-out and setting: the figure for `CCOc1cc(Nc2nc(=O)c(OC)cn2Cc2ccccc2)c(C)cc1C` [Compound I-0790] is greater than 8.00; for `COc1cn(Cc2cc(F)c(F)c(F)c2)c(Nc2cc(C)c(F)cc2C)nc1=O` [Compound I-0712] it is greater than 8.00.
On the same count and under the same terms, for `COc1cn(Cc2ccccc2)c(Nc2cc(N3CCOCC3)ccc2C)nc1=O` [Compound I-0740] the value was 6.30 to 7.00; for `COc1cn(Cc2ccc(F)c(F)c2)c(Nc2cccc3c(=O)[nH]ccc23)nc1=O` [Compound I-0689], 7.00 to 8.00.
For the compound `COCc1cn(Cc2cc(F)c(F)c(F)c2)c(Nc2cc(CO)ccc2C)nc1=O` [Compound I-1152], the pIC50 is greater than 8.00.
Turning to `COc1cnc(Nc2cc(C)c(Cl)cc2C)n(Cc2ccccc2)c1=O` [Compound I-0981], the negative logarithm of the IC50 (pIC50) was 6.00 to 6.30.
Still for that read-out and setting: for `COc1cc(C)c(Nc2cc(=O)c(OC)cn2Cc2ccc(F)c(Cl)c2)cc1C` [Compound I-0954] the value was 7.00 to 8.00; for `COc1ccc(Nc2nc(=O)c(F)cn2Cc2cc(F)cc(F)c2)c(C)n1` [Compound I-1037], 7.00 to 8.00.
Still for that read-out and setting: for `COc1cn(Cc2cc(F)cc(Cl)c2)c(Nc2ccc(N3CCOCC3)cc2C)nc1=O` [Compound I-0612] the value was 6.30 to 7.00; for `COCc1cn(Cc2cc(F)c(F)c(F)c2)c(Nc2ccc(OC)cc2C)nc1=O` [Compound I-1140], 7.00 to 8.00.
For the compound `Cc1cc2c(cc1Nc1nc(=O)c(F)cn1Cc1cc(F)c(F)c(F)c1)CCO2` [Compound I-1046], the pIC50 is greater than 8.00.
As to `COc1cc(C)c(Nc2nc(=O)c(OC)cn2Cc2ccc(F)c(Cl)c2)cc1F` [Compound I-0719], the pIC50 is greater than 8.00.
Still for that read-out and setting: the figure for `COc1cn(Cc2ccc(F)c(Cl)c2)c(Nc2cc(OC(F)(F)F)ccc2C)nc1=O` [Compound I-0692] is 7.00 to 8.00; for `CCOc1cc(C)c(Nc2nc(=O)c(F)cn2Cc2cc(F)c(F)c(F)c2)cc1F` [Compound I-1038] it is 7.00 to 8.00.
Still for that read-out and setting: the figure for `COc1cn(Cc2cc(F)cc(F)c2)c(Nc2cc(OC(F)F)c(C)cc2C)nc1=O` [Compound I-0879] is greater than 8.00; for `COc1cn(Cc2cc(F)c(F)c(F)c2)c(Nc2cc(OC(C)C)ccc2C)nc1=O` [Compound I-0633] it is greater than 8.00.
With `COc1nc(C)c(Nc2nc(=O)c(F)cn2Cc2cc(F)c(F)c(F)c2)cc1C` [Compound I-1000], the pIC50 was greater than 8.00.
On the same count and under the same terms, for `COc1cc(C)c(Nc2nc(=O)c(F)cn2Cc2cc(F)c(F)c(F)c2)cc1F` [Compound I-1087] the value was greater than 8.00; for `COc1cn(Cc2ccc(F)c(Cl)c2)c(Nc2cc(Cl)ccc2C)nc1=O` [Compound I-0594], 7.00 to 8.00; for `COc1cn(Cc2cc(F)cc(F)c2)c(Nc2cc(C(C)(C)O)ccc2C)nc1=O` [Compound I-0785], 7.00 to 8.00.
As for `Cc1cc2c(cc1Nc1nc(=O)c(F)cn1Cc1ccc(F)c(Cl)c1)CCO2` [Compound I-1073], the negative logarithm of the IC50 (pIC50) is greater than 8.00.
Take `COc1cn(Cc2cc(F)cc(F)c2)c(Nc2cc3c(cc2C)OCO3)nc1=O` [Compound I-0741]: the pIC50 was 7.00 to 8.00.
With `Cc1ccc(OCCO)cc1Nc1nc(=O)c(F)cn1Cc1cc(F)c(F)c(F)c1` [Compound I-1205], the pIC50 was greater than 8.00.
As to `Cc1cc(F)c(-c2cccn(C)c2=O)cc1Nc1nc(=O)ccn1Cc1cc(F)c(F)c(F)c1` [Compound I-1137], the pIC50 is 7.00 to 8.00.
On the same count and under the same terms, the figure for `CCc1cc2c(cc1Nc1nc(=O)c(OC)cn1Cc1ccccc1)OC(F)(F)O2` [Compound I-0728] is 6.30 to 7.00; for `COc1cn(Cc2ccccc2)c(Nc2cc3c(cc2C)OC(F)(F)O3)nc1=O` [Compound I-0711] it is 6.30 to 7.00.
